Test results reported in the supplement of paper PMC10307832.

Experiments:
Assay in all cases: relative viability (nuclei count vs DMSO), 5 days (fraction); higher = more cells survive
[1] = test system: NCI-H358
Summary of the method: (§1)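 The day after seeding in 1536-well plates, lung cancer cell lines were treated by pin tool with a single drug, or with a fixed anchor-drug dose together with five library-drug doses (not always all listed) in √10 steps. After 5 days, a combined fix-and-stain solution (final 0.05% Triton X-100, 1% formaldehyde, 1 ug/ml Hoechst) was added. Nuclei counted on 4× images gave relative viability as treated counts over vehicle counts, reported as the median of duplicate plates.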

[2] = test system: NCI-H1792
Summary of the method: as §1

[3] = test system: NCI-H1755
Summary of the method: as §1

[4] = test system: COR-L23
Summary of the method: as §1

[5] = test system: PC-14
Summary of the method: as §1

[6] = test system: LC-2-ad
Summary of the method: as §1

[7] = test system: NCI-H2023
Summary of the method: as §1

[8] = test system: NCI-H1915
Summary of the method: as §1

[9] = test system: NCI-H1395
Summary of the method: as §1

[10] = test system: NCI-H650
Summary of the method: as §1

[11] = test system: NCI-H2342
Summary of the method: as §1

[12] = test system: HCC-366
Summary of the method: as §1

[13] = test system: EMC-BAC-2
Summary of the method: as §1

[14] = test system: HCC-15
Summary of the method: as §1

[15] = test system: NCI-H1437
Summary of the method: as §1

[16] = test system: SK-MES-1
Summary of the method: as §1

[17] = test system: NCI-H23
Summary of the method: as §1

[18] = test system: NCI-H2009
Summary of the method: as §1

[19] = test system: COR-L 105
Summary of the method: as §1

[20] = test system: NCI-H2347
Summary of the method: as §1

[21] = test system: 201T
Summary of the method: as §1

[22] = test system: NCI-H1793
Summary of the method: as §1

Cc1csc(=NC2CCCCC2)n1/N=C/c1ccc(O)c(O)c1O [MIM1] + COc1cccc2cc(-c3nc([C@H]4CC[C@H](C(=O)O)CC4)n4ncnc(N)c34)[nH]c12 [OSI-027] (partner 0.5 µM)
relative viability ([1]; first compound 0.2 µM): 0.772 | relative viability ([1]; first compound 0.6325 µM): 0.7 | relative viability ([1]; first compound 2 µM): 0.755 | relative viability ([1]; first compound 6.325 µM): 0.447 | relative viability ([1]; first compound 20 µM): 0.128 | relative viability ([2]; first compound 0.2 µM): 0.737 | relative viability ([2]; first compound 0.6325 µM): 0.807 | relative viability ([2]; first compound 2 µM): 0.791 | relative viability ([2]; first compound 6.325 µM): 0.578 | relative viability ([2]; first compound 20 µM): 0.596 | relative viability ([3]; first compound 0.2 µM): 0.833 | relative viability ([3]; first compound 0.6325 µM): 0.69 | relative viability ([3]; first compound 2 µM): 0.779 | relative viability ([3]; first compound 6.325 µM): 0.703 | relative viability ([3]; first compound 20 µM): 0.223 | relative viability ([4]; first compound 0.2 µM): 0.843 | relative viability ([4]; first compound 0.6325 µM): 0.955 | relative viability ([4]; first compound 2 µM): 0.654 | relative viability ([4]; first compound 6.325 µM): 0.603 | relative viability ([4]; first compound 20 µM): 0.382 | relative viability ([5]; first compound 0.2 µM): 0.785 | relative viability ([5]; first compound 0.6325 µM): 0.846 | relative viability ([5]; first compound 2 µM): 0.499 | relative viability ([5]; first compound 6.325 µM): 0.656 | relative viability ([5]; first compound 20 µM): 0.0965 | relative viability ([6]; first compound 0.2 µM): 0.909 | relative viability ([6]; first compound 0.6325 µM): 0.591 | relative viability ([6]; first compound 2 µM): 0.754 | relative viability ([6]; first compound 6.325 µM): 0.373 | relative viability ([6]; first compound 20 µM): 0.218 | relative viability ([7]; first compound 0.2 µM): 0.422 | relative viability ([7]; first compound 0.6325 µM): 0.501 | relative viability ([7]; first compound 2 µM): 0.305 | relative viability ([7]; first compound 6.325 µM): 0.182 | relative viability ([7]; first compound 20 µM): 0.0588 | relative viability ([8]; first compound 0.2 µM): 0.669 | relative viability ([8]; first compound 0.6325 µM): 0.495 | relative viability ([8]; first compound 2 µM): 0.609 | relative viability ([8]; first compound 6.325 µM): 0.49 | relative viability ([8]; first compound 20 µM): 0.232 | relative viability ([9]; first compound 0.2 µM): 0.592 | relative viability ([9]; first compound 0.6325 µM): 0.63 | relative viability ([9]; first compound 2 µM): 0.618 | relative viability ([9]; first compound 6.325 µM): 0.508 | relative viability ([9]; first compound 20 µM): 0.374 | relative viability ([10]; first compound 0.2 µM): 0.563 | relative viability ([10]; first compound 0.6325 µM): 0.414 | relative viability ([10]; first compound 2 µM): 0.484 | relative viability ([10]; first compound 6.325 µM): 0.533 | relative viability ([10]; first compound 20 µM): 0.36 | relative viability ([11]; first compound 0.2 µM): 0.675 | relative viability ([11]; first compound 0.6325 µM): 0.59 | relative viability ([11]; first compound 2 µM): 0.663 | relative viability ([11]; first compound 6.325 µM): 0.633 | relative viability ([11]; first compound 20 µM): 0.728 | relative viability ([12]; first compound 0.2 µM): 0.852 | relative viability ([12]; first compound 2 µM): 0.677 | relative viability ([12]; first compound 6.325 µM): 0.186 | relative viability ([12]; first compound 20 µM): 0.0446 | relative viability ([13]; first compound 0.2 µM): 0.422 | relative viability ([13]; first compound 0.6325 µM): 0.36 | relative viability ([13]; first compound 2 µM): 0.357 | relative viability ([13]; first compound 6.325 µM): 0.344 | relative viability ([13]; first compound 20 µM): 0.253 | relative viability ([14]; first compound 0.2 µM): 0.747 | relative viability ([14]; first compound 2 µM): 0.778 | relative viability ([14]; first compound 6.325 µM): 0.469 | relative viability ([14]; first compound 20 µM): 0.102 | relative viability ([15]; first compound 0.2 µM): 0.935 | relative viability ([15]; first compound 0.6325 µM): 0.854 | relative viability ([15]; first compound 2 µM): 0.952 | relative viability ([15]; first compound 6.325 µM): 0.599 | relative viability ([15]; first compound 20 µM): 0.186 | relative viability ([16]; first compound 0.2 µM): 0.656 | relative viability ([16]; first compound 0.6325 µM): 0.643 | relative viability ([16]; first compound 2 µM): 0.591 | relative viability ([16]; first compound 6.325 µM): 0.439 | relative viability ([16]; first compound 20 µM): 0.15 | relative viability ([17]; first compound 0.2 µM): 0.53 | relative viability ([17]; first compound 2 µM): 0.563 | relative viability ([17]; first compound 6.325 µM): 0.306 | relative viability ([17]; first compound 20 µM): 0.156 | relative viability ([18]; first compound 0.2 µM): 0.697 | relative viability ([18]; first compound 0.6325 µM): 0.685 | relative viability ([18]; first compound 2 µM): 0.684 | relative viability ([18]; first compound 6.325 µM): 0.424 | relative viability ([18]; first compound 20 µM): 0.142 | relative viability ([19]; first compound 0.2 µM): 0.733 | relative viability ([19]; first compound 0.6325 µM): 0.725 | relative viability ([19]; first compound 2 µM): 0.596 | relative viability ([19]; first compound 6.325 µM): 0.582 | relative viability ([19]; first compound 20 µM): 0.552 | relative viability ([20]; first compound 0.2 µM): 0.41 | relative viability ([20]; first compound 0.6325 µM): 0.449 | relative viability ([20]; first compound 2 µM): 0.437 | relative viability ([20]; first compound 6.325 µM): 0.392 | relative viability ([20]; first compound 20 µM): 0.287 | relative viability ([21]; first compound 0.2 µM): 0.739 | relative viability ([21]; first compound 0.6325 µM): 0.834 | relative viability ([21]; first compound 2 µM): 0.745 | relative viability ([21]; first compound 6.325 µM): 0.478 | relative viability ([21]; first compound 20 µM): 0.272 | relative viability ([22]; first compound 0.2 µM): 0.273 | relative viability ([22]; first compound 2 µM): 0.247 | relative viability ([22]; first compound 6.325 µM): 0.256 | relative viability ([22]; first compound 20 µM): 0.287
